Drawing on patent US20180105492A1, “COMPOUNDS DERIVED FROM 3-ALKYLAMINE-1H-INDOLYL ACRYLATE AND THEIR USE IN THE TREATMENT OF NEURODEGENERATIVE DISEASES” (FUNDACION PARA LA INVESTIGACION BIOMEDICA DEL HOSPITAL …, priority 2014, published 2018), this text covers fold induction for two compounds.

Assay [1] has as its system Nrf2 transcription factor (Nrf2-ARE). Kind of assay: Nrf2-ARE induction, luciferase activity in AREc32 (MCF7 cells stably transfected with ARE-LUC). Format: cell-based. To be noted: Homo sapiens, 24 h, basal = 1, read-out: Relative Luciferase activity (response versus basal). The method, then: For the study of Nrf2 transcription factor, the cellular line AREC32 was used, which is characterized for being stably transfected with the reporter gene of Luciferase linked to the ARE sequence. In the presence electrophilic compounds or oxidative stress, Nrf2 factor binds to ARE sequences, activating luciferase expression and producing a proportional quantity of luciferase. The AREc32 cells were cultured in DMEM media with glutamax, supplemented with 10% fetal bovine serum (FBS), 1% penicillin-streptomycin and 1.6% geneticine (G418) (obtained from GIBCO, Madrid, Spain). Cells were cultured in 75 cm flasks with 11 mL of specific media, incubated at 37° C. and 5% of CO2. Cells were passed every 4-6 days (1:4), whenever the confluence reached 80%. For the experiments, cells were cultured in transparent surface 96 well plates at a density of […] with 100 μL/well. After 24 h in culture, cells were treated with the compounds at different concentrations (1, 10, 30 and 60 μM) during 24 h at 37° C. and 5% CO2. In every experiment it was also included a basal variable, a variable with 10 μM tert-butyl hydroquinone (TBHQ) (positive control) and the variables of the study in a final volume of 100 μL. After an incubation of 24 h with the compounds, luciferase activity was measured by bioluminescence using the commercial kit “Luciferase assay system” (Promega E1500). For that, treatments were removed and cells were washed with 100 μL of PBS 0.1 M. After washing, 20 μL of “lysis buffer” reactive was added to each well. 10 minutes later, luminescence was measured using the multi-well reader FluoStar optima (BMG labtech).
Luminescence was measured in arbitrary units and is directly proportional to luciferase quantity in the wells, which is also directly proportional to Nrf2 transcription factor induction by the specific compound at the established concentration. Measurements were made in duplicate and values were normalized to the basal luminescence value, considered as 1.
The results of Nrf2 induction obtained for the compounds 1 to 16 are shown in Table 1 and are expressed as induction, considering 1 the non-treated cells.

For assay [2] the test system is unchanged. The assay is described as above. Format: cell-based. To be noted: Homo sapiens, 24 h, basal = 1, read-out: Relative Luciferase activity (response versus basal). This is another data set of the same source.

On to `CCOC(=O)C=Cc1ccccc1` [Ethyl Cinnamate, reference compound], for which the fold induction at 10 µM in assay [1] (10 μM) was found to be 1.46 ± 0.1. Moreover, the fold induction at 30 µM in assay [1] (30 μM) is 1.4 ± 0.1. Further, the fold induction at 60 µM in assay [1] (60 μM) came out at 1.55 ± 0.1.

With `CC(C)(C)c1cc(O)ccc1O` [TBHQ, tert-butyl hydroquinone], in assay [1] (1 μM), the fold induction at 1 µM was determined as 2.19 ± 0.1. Moreover, the fold induction at 3 µM in assay [2] (3 μM) turned out to be 3.83 ± 0.3. For the same compound, the fold induction at 6 µM in assay [2] (6 μM) was 6.1 ± 0.1.
